# Patent US10844023B2 (Washington University, priority 2017, dated 2020)
# Tested on: Mfn2 null MEFs
# Experiment: Mitochondrial elongation (aspect ratio) fusogenicity assay
# Format: cell-based, mouse
# Set-up: % long compare to B: dose or concentration left out as unconfirmed
# Conditions: mitochondrial elongation relative to Cpd B (B01 = 100); Mfn2 null MEFs, compound overnight as printed (FIG. 48)
# From the text: A cultured murine embryonic fibroblast assay system was used in which mitochondrial elongation (an increase in aspect ratio) reflects enhanced mitochondrial fusion.
# A pharmacophore model was generated based on the interactions of HR1 and HR2 domains in the calculated structural model of Mfn2 in the closed conformation. The key features included hydrophobic interactions involving Mfn2 HR1: Val372 and Met376, and aromatic interactions and hydrogen bonding involving Mfn2 HR1 His380. […] A library comprising ˜14 million commercially available compounds was prepared in silico and evaluated using PHASE to fit these criteria. Top ranked hits were clustered, and filtered based on pharmacological properties using Qikprop. The top 55 (see TABLE 4) commercially available small molecules conforming to the model were selected for functional screening and purchased in 1 mg aliquots. […] Images were acquired by confocal microscopy. Each compound was scored for fusogenicity (see e.g., FIG. 24A) and % cell death (see e.g., FIG. 24B).
# Cells were excited with 408 nm (Hoechst), […] (MitoTracker Green and Calcein AM, GFP), or 637 nm (TMRE, MitoTracker Orange, Ethidium homodimer-1, and AF594-Dextran) laser diodes. For mitochondrial elongation studies mitochondrial aspect ratio (long axis/short axis) was calculated using automated edge detection and Image J software. Mitochondrial depolarization was calculated as % of green mitochondria visualized on MitoTracker Green and TMRE merged images, expressed as green/(green+yellow mitochondria)×100.
row,Structure (SMILES),% long compare to B
1,"CCC(c1nnc(SCC(=O)Nc2sc3c(c2C(N)=O)CCC3)n1Cc1ccccc1)N(C)C (centres unmarked) [1-D1, 2-[2-({4-benzyl-5-[1-(dimethyl-amino)propyl]-4H-1,2,4-triazol-3-yl}sulfanyl)acetamido]-4H,5H,6H-cyclopenta[b]thio-phene-3-carboxamide]",23%
2,"COc1ccc(-n2cnnc2SCC(=O)Nc2sc3c(c2C(N)=O)CCC3)cc1 [1-D2, 2-(2-{[4-(4-methoxyphenyl)-4H-1,2,4-triazol-3-yl]sul-fanyl}acetamido)-4H,5H,6H-cyclopenta[b]thiophene-3-carboxamide]",128%
3,"O=C(CSc1nnc2n1CCCCC2)Nc1sc2c(c1C(=O)NCc1ccccc1)CCCC2 [1-D4, N-benzyl-2-(2-{5H,6H,7H,8H,9H-[1,2,4]triazolo[4,3-a]azepin-3-ylsulfanyl}acetamido)-4,5,6,7-tetrahydro-1-benzothiophene-3-carboxamide]",105%
4,"CC(Sc1nnc(-c2ccccc2)n1Cc1ccco1)C(=O)Nc1sc2c(c1C(N)=O)CCC2 (centres unmarked) [1-D7, 2-[2-({4-[(furan-2-yl)methyl]-5-phenyl-4H-1,2,4-triazol-3-yl}sulfanyl)propanamido]-4H,5H,6H-cyclopenta[b]thio-phene-3-carboxamide]",92%
5,"Cn1c(CC2CCS(=O)(=O)C2)nnc1SCC(=O)Nc1sc2c(c1C(N)=O)CCC2 (centres unmarked) [1-D9, 2-[2-({5-[(1,1-dioxo-1λ^6-thiolan-3-yl)methyl]-4-methyl-4H-1,2,4-triazol-3-yl}sulfanyl)acetamido]-4H,5H,6H-cyclopenta-[b]thiophene-3-carboxamide]",5%
6,"CCn1c(SCC(=O)Nc2sc3c(c2C(N)=O)CCC(C)C3)nnc1C1CC1 (centres unmarked) [1-D11, 2-{2-[(5-cyclopropyl-4-ethyl-4H-1,2,4-triazol-3-yl)sulfanyl]acetamido}-6-methyl-4,5,6,7-tetrahydro-1-benzothiophene-3-carboxamide]",6%
7,"CC(Sc1nnc2n1CCCCC2)C(=O)Nc1sc2c(c1C(N)=O)CCC2 (centres unmarked) [1-D12, 2-(2-{5H,6H,7H,8H,9H-[1,2,4]triazolo[4,3-a]azepin-3-ylsulfanyl}propanamido)-4H,5H,6H-cyclopenta[b]-thiophene-3-carboxamide]",18%
8,"C=CCn1c(SCC(=O)Nc2sc3c(c2C(N)=O)CCC3)nnc1C1CCCCC1 [1-E1, 2-(2-{[5-cyclohexyl-4-(prop-2-en-1-yl)-4H-1,2,4-triazol-3-yl}sulfanyl]acetamido)-4H,5H,6H-cyclopenta[b]thio-phene-3-carboxamide]",38%
9,"COc1ccccc1-n1cnnc1SCC(=O)Nc1sc2c(c1C(N)=O)CCC2 [1-E2, 2-(2-{[4-(2-methoxyphenyl)-4H-1,2,4-triazol-3-yl]sulfanyl}acet-amido)-4H,5H,6H-cyclopenta-[b]thiophene-3-carboxamide]",17%
10,"CC1CCc2c(sc(NC(=O)CSc3nnc(C4CC4)n3Cc3ccccc3)c2C(N)=O)C1 (centres unmarked) [1-E3, 2-{2-[(4-benzyl-5-cyclopropyl-4H-1,2,4-triazol-3-yl)sulfanyl]acetamido}-6-methyl-4,5,6,7-tetrahydro-1-benzothiophene-3-carboxamide]",11%
11,"COc1ccc(NC(=O)c2c(NC(=O)CSc3nnc(C4CC4)n3C)sc3c2CCCC3)cc1 [1-E4, 2-{2-[(5-cyclopropyl-4-methyl-4H-1,2,4-triazol-3-yl)sulfanyl]acetamido}-N-(4-methoxyphenyl)-4,5,6,7-tetrahydro-1-benzothiophene-3-carboxamide]",17%
12,"NC(=O)c1c(NC(=O)CSc2nnc(C3CC3)n2-c2ccccc2)sc2c1CCCC2 [1-E5, 2-{2-[(5-cyclopropyl-4-phenyl-4H-1,2,4-triazol-3-yl)sulfanyl]-acetamido}-4,5,6,7-tetrahydro-1-benzothiophene-3-carboxamide]",−3%
13,"CCn1c(SCC(=O)Nc2sc3c(c2C(=O)NCc2ccccc2)CCCC3)nnc1C1CC1 [1-E6, N-benzyl-2-{2-[(5-cyclopropyl-4-ethyl-4H-1,2,4-triazol-3-yl)sulfanyl]acetamido}-4,5,6,7-tetrahydro-1-benzothiophene-3-carboxamide]",10%
14,"Cc1ccccc1-c1nnc(SCC(=O)Nc2sc3c(c2C(N)=O)CCC3)n1C [1-E7, 2-(2-{[4-methyl-5-(2-methyl-phenyl)-4H-1,2,4-triazol-3-yl]sulfanyl}acetamido)-4H,5H,6H-cyclopenta[b]-thiophene-3-carboxamide]",9%
15,"CC(Sc1nccn1-c1cccc(F)c1)C(=O)Nc1sc2c(c1C(N)=O)CCC2 (centres unmarked) [1-E8, 2-(2-{[1-(3-fluorophenyl)-1H-imidazol-2-yl]sulfanyl}pro-panamido)-4H,5H,6H-cyclo-penta[b]thiophene-3-carboxamide]",5%
16,"CC(Sc1nnc(CC2CCS(=O)(=O)C2)n1C)C(=O)Nc1sc2c(c1C(N)=O)CCC2 (centres unmarked) [1-E9, 2-[2-({5-[(1,1-dioxo-1λ^6-thiolan-3-yl)methyl]-4-methyl-4H-1,2,4-triazol-3-yl}sulfanyl)propanamido]-4H,5H,6H-cyclopenta[b]thio-phene-3-carboxamide]",0%
17,"Cc1cccc(-n2ccnc2SC(C)C(=O)Nc2sc3c(c2C(N)=O)CCC3)c1C (centres unmarked) [1-E10, 2-(2-{[1-(2,3-dimethylphenyl)-1H-imidazol-2-yl]sulfanyl}pro-panamido)-4H,5H,6H-cyclo-penta[b]thiophene-3-carboxamide]",21%
18,"NC(=O)c1c(NC(=O)CSc2nnc(-c3ccco3)n2-c2ccccc2)sc2c1CCC2 [1-F1, 2-(2-{[5-(furan-2-yl)-4-phenyl-4H-1,2,4-triazol-3-yl]sulfanyl}-acetamido)-4H,5H,6H-cyclo-penta[b]thiophene-3-carboxamide]",21%
19,"C=CCn1c(SCC(=O)Nc2sc3c(c2C(N)=O)CCC3)nnc1-c1ccccc1 [1-F2, 2-(2-{[5-phenyl-4-(prop-2-en-1-yl)-4H-1,2,4-triazol-3-yl]sulfanyl}acetamido)-4H,5H,6H-cyclopenta[b]thio-phene-3-carboxamide]",−10%
20,"Cc1ccc(-n2c(C)nnc2SCC(=O)Nc2sc3c(c2C(N)=O)CCC3)cc1 [1-F3, 2-(2-{[5-methyl-4-(4-methylphenyl)-4H-1,2,4-triazol-3-yl]sulfanyl}acetamido)-4H,5H,6H-cyclopenta[b]-thiophene-3-carboxamide]",13%
21,"COc1ccccc1-n1c(C)nnc1SCC(=O)Nc1sc2c(c1C(N)=O)CCCC2 [1-F4, 2-(2-{[4-(2-methoxyphenyl)-5-methyl-4H-1,2,4-triazol-3-yl]sulfanyl}acetamido)-4,5,6,7-tetrahydro-1-benzothiophene-3-carboxamide]",22%
22,"CCn1c(SCC(=O)Nc2sc3c(c2C(N)=O)CCCC3)nnc1C1CC1 [1-F5, 2-{2-[(5-cyclopropyl-4-ethyl-4H-1,2,4-triazol-3-yl)sulfanyl]acet-amido}-4,5,6,7-tetrahydro-1-benzothiophene-3-carboxamide]",−7%
23,"CC(c1nnc(SCC(=O)Nc2sc3c(c2C(N)=O)CCC3)n1-c1ccc(F)cc1)N(C)C (centres unmarked) [1-F6, 2-[2-({5-[1-(dimethylamino)ethyl]-4-(4-fluorophenyl)-4H-1,2,4-triazol-3-yl}sulfanyl)acetamido]-4H,5H,6H-cyclopenta[b]thio-phene-3-carboxamide]",30%
24,"CC(Sc1nnc(-c2cccs2)n1-c1ccccc1)C(=O)Nc1sc2c(c1C(N)=O)CCC2 (centres unmarked) [1-F7, 2-(2-{[4-phenyl-5-(thiophen-2-yl)-4H-1,2,4-lriazol-3-yl]sul-fanyl}propanamido)-4H,5H,6H-cyclopenta[b]thiophene-3-carboxamide]",−26%
25,"CC(Sc1nnc(-c2c[nH]c3ccccc23)n1C1CC1)C(=O)Nc1sc2c(c1C(N)=O)CCC2 (centres unmarked) [1-F8, 2-(2-{[4-cyclopropyl-5-(1H-indol-3-yl)-4H-1,2,4-triazol-3-yl]sulfanyl}propanamido)-4H,5H,6H-cyclopenta[b]-thiophene-3-carboxamide]",2%
26,"C=CCn1c(SCC(=O)Nc2sc3c(c2C(N)=O)CCCC3)nnc1C1CC1 [1-F9, 2-(2-{[5-cyclopropyl-4-(prop-2-en-1-yl)-4H-1,2,4-triazol-3-yl]sulfanyl}acet-amido)-4,5,6,7-tetrahydro-1-benzothiophene-3-carboxamide]",202%
27,"CC(Sc1nnc(-c2cccnc2)n1Cc1ccco1)C(=O)Nc1sc2c(c1C(N)=O)CCC2 (centres unmarked) [1-F10, 2-[2-({4-[(furan-2-yl)methyl]-5-(pyridin-3-yl)-4H-1,2,4-triazol-3-yl}sulfanyl)propanamido]-4H,5H,6H-cyclopenta[b]-thiophene-3-carboxamide]",29%
28,"NC(=O)c1c(NC(=O)CSc2nnc(-c3cccnc3)n2-c2ccccc2)sc2c1CCC2 [1-F11, 2-(2-{[4-phenyl-5-(pyridin-3-yl)-4H-1,2,4-triazol-3-yl]sulfanyl]acet-amido)-4H,5H,6H-cyclopenta[b]-thiophene-3-carboxamide]",13%
29,"Cc1ccccc1-n1c(SCC(=O)Nc2sc3c(c2C(N)=O)CCC3)nnc1-c1cccnc1 [1-G1, 2-(2-{[4-(2-methylphenyl)-5-(pyridin-3-yl)-4H-1,2,4-triazol-3-yl]sulfanyl}acet-amido)-4H,5H,6H-cyclopenta[b]thiophene-3-carboxamide]",141%
